Laboratory results: patent US20220202929A1, “DRUG-RESISTANT INFLUENZA VIRUS STRAINS” (President and Fellows of Harvard College, priority 2019, published 2022)

How the values were obtained:
Format in all cases: cell-based, influenza A virus
[1] = tested on: NA-H274Y mutant influenza virus strain
[2] = tested on: M2 S31N mutant influenza virus strain
[3] = tested on: M2 S31N/G34E mutant influenza virus strain
[4] = tested on: M2 S31N/L46P mutant influenza virus strain

Compound	IC50 [1]	IC50 [2]	IC50 [3]	IC50 [4]
CCOC(=O)C1=C[C@@H](OC(CC)CC)[C@H](NC(C)=O)[C@@H](N)C1 [oseltamivir]	2.67 µM	–	–	–
NC12CC3CC(CC(C3)C1)C2 [amantadine]	–	24.7 µM	> 100 µM	65.9 µM
